# US20230241159A1, “Peptide Having Mesenchymal Stem Cell Mobilizing Activity” (StemRIM Inc., priority 2020, published 2023)
# How the values were obtained:
# [1] = system: inflammatory bowel disease (IBD) model mice; assay: Dextran sulfate sodium (DSS)-induced inflammatory bowel disease (IBD) model mice; type: in vivo, BALB/c mice
# Experimental: Dextran sodium sulfate (DSS) (molecular weight 36,000 to 50,000, manufactured by MP Biomedicals, Product No. 160110) was dissolved in purified water to prepare a 2.5% (w/v) DSS aqueous solution. In addition, the peptide 1r10 (TFA salt) consisting of the amino acid sequence of SEQ ID NO: 1 was chemically synthesized by the solid phase method and used as the test substance.
# BALB/c mice (9 weeks old, male) were allowed to drink the 2.5% DSS aqueous solution freely for 7 days to induce colitis. After that, the drinking was changed from DSS to tap water, and the large intestine was collected 3 days later (10 days after the start of drinking the DSS aqueous solution).
# The IBD model mice prepared as described above were divided into the peptide 1r10 administration group (n=8) and the control group (n=8). Peptide administration was carried out by injecting into the tail vein, the peptide 1r10 solution adjusted to a concentration of 0.5 mg/mL using physiological saline as a solvent at an amount of 10 mL/kg on Days 1, 4, 7, 8 and 9 after the start of drinking the DSS aqueous solution (peptide dose of 5 mg/kg). The control group was injected with physiological saline solution at a dose of 10 mL/kg into the tail vein on Days 1, 4, 7, 8 and 9 after the start of drinking the DSS aqueous solution.
# For 10 days from the start of drinking the DSS aqueous solution, the mice were weighed and observed for the symptoms (stool condition and bleeding) every day except Saturdays, Sundays, and holidays, and the degree of symptoms was evaluated by calculating the DAI (disease activity index) score. The DAI score was calculated by scoring the weight loss rate, stool condition, and stool bleeding as shown in the table below, and summing the scores of these three items. The scoring criteria were partly based on the method of Li et al. (PLoS One. 2015 Dec. 7; 10 (12): e0144101).
# In addition, the length of the large intestine (from the colon to the rectum) collected 10 days after the start of drinking DSS was measured using a digital caliper.
# [2] = system: cerebral infarction model rat; assay: Cerebral infarction model rat (right MCA occlusion), cerebral infarction volume ratio; type: in vivo, Crl:CD (SD) rats; settings: 2 mg/kg tail vein at 105 minutes and 24 hours after right MCA occlusion; 48 hours after occlusion; control 34.1±1.1%; p<0.01
# Source text: Crl:CD (SD) rats (7 weeks old, male) were obtained from Charles River Laboratories, Japan, and after 6 days of acclimation, they were divided into the control group (n=8) and the peptide-administered group (n=8). On the following day of grouping, the rats were fixed in the supine position under 2% isoflurane inhalation anesthesia (anesthesia background: laughing gas:oxygen=7:3). To regulate body temperature during surgery, a thermometer probe connected to a digital thermometer was inserted into the rectum, and changes in the rectal temperature before and after surgery were monitored. […]
# Forty-eight hours after the right MCA occlusion, the animals were decapitated under anesthesia with sodium pentobarbital (50 mg/kg, intraperitoneal administration), and the entire brain was excised to prepare brain sections with a thickness of 2 mm. […] The resulting photographs were subjected to image analysis to obtain actual measurements of the cerebral infarction area and cross-sectional area of the brain, and the cerebral infarct volume and the total brain volume from 4 mm anterior to bregma to 6 mm posterior to bregma were calculated using the calculation formula below. In addition, the cerebral infarction volume ratio was calculated from the cerebral infarction volume and the total volume of the brain (cerebral infarction volume ratio (%)=cerebral infarction volume/total brain volume x 1001. […]
# [3] = system: atopic dermatitis model mice; assay: MC903-induced atopic dermatitis model mice; type: in vivo, C57BL/6 mice
# Source text: MC903 (generic name: Calcipotriol) was used to induce atopic dermatitis (hereinafter, also referred to as “AD”) in mice. In addition, the peptide 1r10 (TFA salt) described in Reference Example 1 was used as the test substance.
# C57BL/6 mice (C57BL/6 JJcl, 7-8 weeks old, male, microbial grade SPF) were obtained from Japan Claire Co., Ltd., acclimated in the animal breeding room for 5 days or more, and then subjected to the following experiments. An ethanol-adjusted MC903 solution was applied to the skin of the auricle of the mice at a dose of 2.25 nmol MC903/ear/once/day five times a week for 2 weeks (ten times in total) to induce atopic dermatitis (AD). This MC903-induced AD model is a model in which AD-like pathology can be reproduced in a short period of time (1-2 weeks) by artificially inducing the secretion of TSLP from epithelial cells, which is actually seen in AD patients, thereby eliciting a series of type 2 immune response cascades (Li M et al., Proc Natl Acad Sci USA. 2006; 103:11736-41.).
# They were then divided into the control group and the peptide administration group (n=7 in each group), while the groups were equalized based on the auricle thickness in consideration of the difference in the severity of inflammation between individuals. For peptide administration, the solution of peptide 1r10 adjusted to 0.3 mg/mL with physiological saline was injected into the tail vein at a volume of 5 mL/kg ([…]) twice in total, once on the grouping day (Day 15) and once during the following 4 days (Day 16 to Day 19). For the control group a solution of bovine serum albumin (BSA) adjusted to 0.3 mg/mL with physiological saline was injected into the tail vein at a volume of 5 mL/kg (BSA dose of 1.5 mg/kg) twice in total, once on the grouping day (Day 15) and once during the following 4 days (Day 16 to Day 19).
# During the peptide administration period (Day 15 to Day 19), ear swellings were measured daily to determine edema. Scaling, which is the main symptom of AD, was determined by photography (three times a week) using a digital camera (E-Ml II; Olympus) from a fixed base at a height of 13-14 cm from the auricle.
# On the 4th day (Day 19) after the start of peptide administration, mice were placed under the influence of isoflurane anesthesia and euthanized with cervical spine dislocation. The skin at auricular inflammation site and its surroundings was quickly excised and collected while on ice to prevent protein denaturation of the sample. After removing excess hair and skin with tweezers, the collected auricular skin was immersed in 10% formalin and fixed at 4° C. overnight while shaking on ice using a shaker. After fixation, the skin was thoroughly washed with phosphate buffered saline (PBS) and trimmed, and then a paraffin block was made using an automatic embedding device (Excelsior ES; Thermo Scientific) with attention to the tissue polarity in the dorsoventral axis/left-right axis specific to the skin). Then, it was sliced (5 μm thick) with a rotary microtome (HM 325; Thermo Scientific), fixed on a slide glass, and subjected to various staining. As pathological analysis, skin thickness and infiltration of immune cells were evaluated by histochemical staining and fluorescent immunostaining, respectively.
# To quantitatively evaluate the healing condition of the site of inflammation, hematoxylin-eosin (HE) staining of the paraffin thin sections (5 μm thick) of skin tissue generated as described above was performed to measure the dermal thickness. Specifically, three sections were prepared for each individual, and each section was photographed with a microscope (Keyence BZ-X710) at one site each of the center of inflammation, head side, and tail side (that is, a total of 9 sites were photographed per individual). […]
# mesenchymal stem cells = assay: Solid-phase culture of peripheral blood after administration of HMGB1 peptide 1-44 (earlier experiments of the inventors); type: in vivo
# Source text: In addition, the colonies obtained as a result of culturing, on a solid phase, peripheral blood after administration of a peptide consisting of amino acid residues 1-44 of the human HMGB1 protein (hereinafter, HMGB1 peptide 1-44), which has an activity of mobilizing mesenchymal stem cells into peripheral blood, have been confirmed to have adherability to solid phase and self-renewal ability, and to be PDGFRα positive. They have also been confirmed to have a gene expression profile characteristic to mesenchymal stem cells, based on the results of clustering the transcriptome analysis data and performing gene ontology analysis.
# [4] = 5 mg/kg tail vein, 8 to 10 days after the start of drinking DSS, versus saline control
substance,measurement,setting,value
1r10: artificial sequence peptide consisting of the amino acid sequence of SEQ ID NO: 1 (30 amino acids) (IMWLCQYFFQCHKCAVKKKTWKEKKDRRHP) [Peptide 1r10],body weight 10 days after the start of drinking the DSS aqueous solution,"[1]; 5 mg/kg tail vein on Days 1, 4, 7, 8 and 9, Day 10",showed a tendency to recover body weight
same,changes in mouse body weight during the test period,"[1]; 5 mg/kg tail vein on Days 1, 4, 7, 8 and 9 after start of drinking DSS, versus saline control",the degree of decrease was slower in the peptide-administered group than in the control group
same,DAI (disease activity index) score,[1]; [4],lower in the peptide-administered group than in the control group
same,stool score (sum of stool condition score and bleeding score),[1]; [4],lower in the peptide-administered group than in the control group
same,colon length (length of the large intestine),"[1]; 5 mg/kg tail vein, ten days after the start of drinking DSS, versus saline control",longer than that of the control group
same,cerebral infarction volume ratio (mean±standard error),[2],27.2±1.2%
same,dermis thickness,"[3]; 1.5 mg/kg tail vein twice, 4th day after start of administration (Day 19), HE staining, versus control",statistically significant decrease in dermis thickness
same,scaling in the auricle,"[3]; 1.5 mg/kg tail vein twice, 4 days after start of peptide administration, versus BSA control",reduction of scaling in the auricle was observed
same,number of CD45-positive cells (infiltration of immune cells) in auricular skin sections,"[3]; 1.5 mg/kg tail vein twice, Day 19, high power field 400×, versus control",statistically significant decrease in the number of CD45-positive cells
same,auricular thickness (edema),"[3]; 1.5 mg/kg tail vein twice, peptide administration period Day 15 to Day 19, versus BSA control",statistically significant reduction in auricular thickness
same,changes in mouse body weight during the period of the study,"[3]; Day 15 to Day 19, between peptide and control groups, p>0.05, repeated one-way ANOVA",not significantly different between the groups
same,dermis thickness,"[3]; dose of 0.5 mg/kg, versus control (data not shown)",statistically significant decrease in dermis thickness
"HMGB1 peptide 1-44: peptide consisting of amino acid residues 1-44 of the human HMGB1 protein (MGKGDPKKPRGKMSSYAFFVQTCREEHKKKHPDASVNFSEFSKK; UniProt P09429 1-44, looked up, fragment)","number of colonies obtained by solid-phase culture of peripheral blood, versus physiological saline",mesenchymal stem cells,larger in the peripheral blood after administration of HMGB1 peptide 1-44 than in the peripheral blood after administration of physiological saline
